One test deals with palivizumab. Put plainly: ELISA binding of palivizumab to coated V-306, V-306p or SVLP carrier. More on the design: species or system humanized murine. As for the experimental part:
These ELISA were performed at the Center for Vaccinology (CEVAC), Ghent University and University Hospital, Belgium, based on the methods described above. […] Then 8 twofold serial dilutions of human serum were added. After washing, anti-human IgG Fc mAb-HRP (1/120,000 dilution) was added. After washing, TMB substrate was added. The color reaction was terminated by the addition of 1 N sulphuric acid. After 30 min the OD is read. The optical density for a given sample was used to extrapolate the Ab titer expressed in µg/mL. The coating conditions were optimized using IgG-depleted human serum spiked with known concentrations of palivizumab such that no further increase in signal is observed (saturation point) and no significant signal is seen in the negative control. The sensitivity of the assay was determined using different concentrations of palivizumab (from 0 to 200 µg/mL) and of anti-human IgG HRP-conjugated Ab (see Supplementary Fig. 5). The detection limit was 0.012207 µg/mL palivizumab (0.61 µg/mL in human serum diluted 1/50). The palivizumab-like Ab concentrations found in 20 different human sera (serum samples 001–020) are shown in Supplementary Fig. 5.
(In general: An ELISA detects its analyte on a solid surface through an enzyme-linked reagent.)

The next test concerns RSV A Tracy. The test can be described thus: RSV A Tracy microneutralization (MN) assay of mAbs. The class given is cell-based, respiratory syncytial virus. Particulars: for MN titer: RSV A Tracy, HEp-2 cells, 50% reduction in viral cytopathic effect. As for the experimental part: The RSV A Tracy MN assay was performed by Prof. Pedro Piedra at Baylor College of Medicine, Texas, USA. Heat-inactivated serum samples were analyzed for nAbs against RSV A/Tracy in HEp-2 cells using qualified MN assays as previously described[38]–[41]. nAb titers were defined as the final dilution at which there was a 50% reduction in viral cytopathic effect. Any serum sample resulting in a titer less than the lower limit of detection (LOD) (2.5 log2) was assigned a value of 2 log2.
On the technique in general: Protection from cytopathic effect is a common read-out in antiviral testing.

A further test concerns RSV strain A2. Put plainly: Passive transfer challenge model, lung virus titer by plaque assay. The class given is in vivo. The following applies: cotton rats n = 5, mAb 24 h before challenge with 10^4 PFU RSV A2, doses 1.0, 2.5, 5.0, 15 mg; lungs day 5; ****P ≤ 0.0001 vs PBS. The procedure:
The challenge study comparing 10D11 and palivizumab was performed at Sigmovir Biosystems Inc. (MD, USA). Young adult male cotton rats (8, 6–8 weeks old) were treated IM with the mAb (1.0, 2.5, 5.0, or 15 mg doses). All animals were challenged with 100 µl RSV/A2 at 10^5 pfu per animal. After sacrificing the animals, nasal and lung tissue were harvested for viral titration using the RSV/A2 60% PRNT assay described above.

Entries after “also recorded” stand apart in the source; their conditions may differ.

For “palivizumab: prophylactic humanized murine monoclonal nAb”, the “detection limit of ELISA” value with palivizumab (ELISA with palivizumab standard 0 to 200 µg/mL) was found to be 0.01221 µg/mL. The “detection limit of ELISA in human serum” value in the test with palivizumab (human serum diluted 1/50) turned out to be 0.61 µg/mL. This molecule gave an MN titer in the test on RSV A Tracy of 5.0 log2. The “reduction of RSV replication in lungs, passive transfer” value in the test on RSV strain A2 is on record as “significantly reduced RSV replication in the lungs in a dose-dependent manner”.

B1: 10D11: monoclonal antibody against V-306 generated in BALB/c mice (antibody, V domains shown)
VH: QVQLKESGPGLVAPSQSLSITCTVSGFSLTSYDISWIRQPPGKGLEWLGIIWNGGGTNYNSAFMSRLSINKDNSKSQVFLKMNSLQTDDTAIYYCVRGDYDYAWFDYWGQGTLVTVSA
VL: NIMMTQSPSSLTVSAGEKVTMSCKSSQSVLYGSNQKNYLAWYQQKPGQSPKLLIYWASTRDSGVPDRFTGSGSGTDFTLTISSVQAEDLAVYYCHQYLFSWTFGGGTKLEIK
Consider B1, for which the “MN potency of 10D11 relative to palivizumab (fold)” value in the test on RSV A Tracy (RSV A Tracy MN) was “approximately fourfold”. Moreover, in the test with RSV A Tracy, the MN titer was determined as 7.0 log2. Also, in the test with RSV strain A2, the “reduction of RSV replication in lungs, passive transfer” value was “significantly reduced RSV replication in the lungs in a dose-dependent manner; also recorded: reduced lung virus titers in a dose-dependent manner”.

Values taken from PMC8213762, “An epitope-specific chemically defined nanoparticle vaccine for respiratory syncytial virus” (NPJ Vaccines, 2021).
